# According to ChEMBL document CHEMBL4507296 (2021):
# Legend:
# [1] = target: BMP-2-inducible protein kinase (Homo sapiens) (UniProt Q9NSY1); conditions: Compound concentration 1000.0 nM
# [2] = target: Serine/threonine-protein kinase SBK1 (Homo sapiens) (UniProt Q52WX2); conditions: Compound concentration 1000.0 nM
# [3] = target: Inhibitor of nuclear factor kappa-B kinase subunit alpha (Homo sapiens) (UniProt O15111); conditions: Compound concentration 1000.0 nM
# [4] = target: Calcium/calmodulin-dependent protein kinase type II subunit gamma (Homo sapiens) (UniProt Q13555); conditions: Compound concentration 1000.0 nM
# [5] = target: 5-hydroxytryptamine receptor 7 (Homo sapiens) (UniProt P34969); conditions: Compound concentration 10.0 uM
# [6] = target: Receptor-interacting serine/threonine-protein kinase 1 (Homo sapiens) (UniProt Q13546); conditions: Compound concentration 1000.0 nM
# [7] = target: MAP/microtubule affinity-regulating kinase 4 (Homo sapiens) (UniProt Q96L34); conditions: Compound concentration 1000.0 nM
# [8] = tested on: Epidermal growth factor receptor (Homo sapiens), P00533 [G719S]; conditions: Compound concentration 1000.0 nM
# [9] = tested on: Tyrosine-protein kinase ABL1 (Homo sapiens), P00519 [Q252H]; conditions: Compound concentration 1000.0 nM
# [10] = target: Phosphatidylinositol 4,5-bisphosphate 3-kinase catalytic subunit beta isoform (Homo sapiens) (UniProt P42338); conditions: Compound concentration 1000.0 nM
# [11] = target: Tyrosine-protein kinase Tec (Homo sapiens) (UniProt P42680); conditions: Compound concentration 1000.0 nM
# [12] = target: Alpha-2C adrenergic receptor (Homo sapiens) (UniProt P18825); conditions: Compound concentration 10.0 uM
# [13] = target: cAMP-dependent protein kinase catalytic subunit alpha (Homo sapiens) (UniProt P17612); conditions: Compound concentration 1000.0 nM
# [14] = target: NUAK family SNF1-like kinase 1 (Homo sapiens) (UniProt O60285); conditions: Compound concentration 1000.0 nM
# [15] = tested on: Hepatocyte growth factor receptor (Homo sapiens), P08581 [M1250T]; conditions: Compound concentration 1000.0 nM
# [16] = target: MAP kinase-activated protein kinase 5 (Homo sapiens) (UniProt Q8IW41); conditions: Compound concentration 1000.0 nM
# [17] = target: Myosin light chain kinase family member 4 (Homo sapiens) (UniProt Q86YV6); conditions: Compound concentration 1000.0 nM
# [18] = target: Mitogen-activated protein kinase 15 (Homo sapiens) (UniProt Q8TD08); conditions: Compound concentration 1000.0 nM
# [19] = target: LIM domain kinase 2 (Homo sapiens) (UniProt P53671); conditions: Compound concentration 1000.0 nM
# [20] = target: Phosphatidylinositol 4-phosphate 5-kinase type-1 gamma (Homo sapiens) (UniProt O60331); conditions: Compound concentration 1000.0 nM
# [21] = target: Beta-1 adrenergic receptor (Homo sapiens) (UniProt P08588); conditions: Compound concentration 10.0 uM
# [22] = target: Receptor-interacting serine/threonine-protein kinase 2 (Homo sapiens) (UniProt O43353); conditions: Compound concentration 1000.0 nM
# [23] = target: Serine/threonine-protein kinase MAK (Homo sapiens) (UniProt P20794); conditions: Compound concentration 1000.0 nM
# [24] = target: cAMP-dependent protein kinase catalytic subunit beta (Homo sapiens) (UniProt P22694); conditions: Compound concentration 1000.0 nM
# [25] = GPCRScan assay: inhibition of GABA/PBR; set-up: species or system Rattus norvegicus; radioligand conc. used [nm] 0.3 – 2.0, parental cells brain tissue
# [26] = target: Serine/threonine-protein kinase PLK1 (Homo sapiens) (UniProt P53350); conditions: Compound concentration 1000.0 nM
# [27] = target: Muscarinic acetylcholine receptor M2 (Homo sapiens) (UniProt P08172); conditions: Compound concentration 10.0 uM
# [28] = tested on: Mast/stem cell growth factor receptor Kit (Homo sapiens), P10721 [V559D,V654A]; conditions: Compound concentration 1000.0 nM
# [29] = target: Receptor-type tyrosine-protein kinase FLT3 (Homo sapiens) (UniProt P36888); conditions: Compound concentration 1000.0 nM
# [30] = target: Cyclin-dependent kinase 4 (Homo sapiens) (UniProt P11802); conditions: Compound concentration 1000.0 nM
# [31] = target: Tyrosine-protein kinase Fyn (Homo sapiens) (UniProt P06241); conditions: Compound concentration 1000.0 nM
# [32] = target: Tyrosine-protein kinase receptor TYRO3 (Homo sapiens) (UniProt Q06418); conditions: Compound concentration 1000.0 nM
# [33] = target: Protein kinase C delta type (Homo sapiens) (UniProt Q05655); conditions: Compound concentration 1000.0 nM
# [34] = tested on: ALK tyrosine kinase receptor (Homo sapiens), Q9UM73 [L1196M]; conditions: Compound concentration 1000.0 nM
# [35] = target: 5'-AMP-activated protein kinase catalytic subunit alpha-2 (Homo sapiens) (UniProt P54646); conditions: Compound concentration 1000.0 nM
# [36] = target: TRAF2 and NCK-interacting protein kinase (Homo sapiens) (UniProt Q9UKE5); conditions: Compound concentration 1000.0 nM
# [37] = target: Serine/threonine-protein kinase PAK 1 (Homo sapiens) (UniProt Q13153); conditions: Compound concentration 1000.0 nM
# [38] = target: Serine/threonine-protein kinase RIO3 (Homo sapiens) (UniProt O14730); conditions: Compound concentration 1000.0 nM
# [39] = target: MAP kinase-interacting serine/threonine-protein kinase 2 (Homo sapiens) (UniProt Q9HBH9); conditions: Compound concentration 1000.0 nM
# [40] = target: Serine/threonine-protein kinase 36 (Homo sapiens) (UniProt Q9NRP7); conditions: Compound concentration 1000.0 nM
# [41] = target: Ribosomal protein S6 kinase beta-1 (Homo sapiens) (UniProt P23443); conditions: Compound concentration 1000.0 nM
# [42] = target: Tyrosine-protein kinase JAK1 (Homo sapiens) (UniProt P23458); conditions: Compound concentration 1000.0 nM
# [43] = target: Rhodopsin kinase GRK7 (Homo sapiens) (UniProt Q8WTQ7); conditions: Compound concentration 1000.0 nM
# [44] = target: Beta-2 adrenergic receptor (Homo sapiens) (UniProt P07550); conditions: Compound concentration 10.0 uM
# [45] = target: Casein kinase I isoform gamma-1 (Homo sapiens) (UniProt Q9HCP0); conditions: Compound concentration 1000.0 nM
# MAP/microtubule affinity-regulating kinase 4 (Homo sapiens), sequence (Q96L34 whole entry): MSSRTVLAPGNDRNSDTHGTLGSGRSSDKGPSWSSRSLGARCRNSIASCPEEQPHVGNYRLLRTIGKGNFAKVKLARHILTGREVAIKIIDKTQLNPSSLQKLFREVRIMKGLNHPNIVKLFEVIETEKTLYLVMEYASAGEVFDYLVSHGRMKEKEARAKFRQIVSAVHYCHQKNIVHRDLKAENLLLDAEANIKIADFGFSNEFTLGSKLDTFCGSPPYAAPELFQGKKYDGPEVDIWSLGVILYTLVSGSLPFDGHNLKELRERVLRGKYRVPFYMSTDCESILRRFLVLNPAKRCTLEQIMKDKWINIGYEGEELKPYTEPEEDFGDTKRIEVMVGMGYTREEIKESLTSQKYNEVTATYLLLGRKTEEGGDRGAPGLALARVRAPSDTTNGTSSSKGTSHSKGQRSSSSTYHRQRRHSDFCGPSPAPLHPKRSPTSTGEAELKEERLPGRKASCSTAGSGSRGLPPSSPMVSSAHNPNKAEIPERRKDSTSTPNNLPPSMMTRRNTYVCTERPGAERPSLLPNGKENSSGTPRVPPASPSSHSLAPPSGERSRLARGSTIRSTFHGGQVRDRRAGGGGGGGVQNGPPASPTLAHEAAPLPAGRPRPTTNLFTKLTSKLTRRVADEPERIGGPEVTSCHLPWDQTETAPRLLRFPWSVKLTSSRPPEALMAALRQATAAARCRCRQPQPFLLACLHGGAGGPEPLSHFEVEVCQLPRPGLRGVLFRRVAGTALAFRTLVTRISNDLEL
# Serine/threonine-protein kinase RIO3 (Homo sapiens), sequence (O14730 whole entry): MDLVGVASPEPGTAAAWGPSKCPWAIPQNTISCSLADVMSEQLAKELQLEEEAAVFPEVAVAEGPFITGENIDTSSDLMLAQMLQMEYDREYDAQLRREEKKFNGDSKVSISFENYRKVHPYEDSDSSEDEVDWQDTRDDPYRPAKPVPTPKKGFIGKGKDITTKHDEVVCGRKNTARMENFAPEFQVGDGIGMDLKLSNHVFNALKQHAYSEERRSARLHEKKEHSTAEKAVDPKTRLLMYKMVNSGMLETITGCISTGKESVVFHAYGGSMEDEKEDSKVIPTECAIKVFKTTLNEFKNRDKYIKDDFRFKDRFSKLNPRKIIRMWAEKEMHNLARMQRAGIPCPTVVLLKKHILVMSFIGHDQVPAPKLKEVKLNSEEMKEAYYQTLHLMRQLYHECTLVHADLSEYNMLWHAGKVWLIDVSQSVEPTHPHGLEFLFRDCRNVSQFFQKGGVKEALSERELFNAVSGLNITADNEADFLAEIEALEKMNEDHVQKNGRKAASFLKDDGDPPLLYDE
# Rhodopsin kinase GRK7 (Homo sapiens), sequence (Q8WTQ7 whole entry): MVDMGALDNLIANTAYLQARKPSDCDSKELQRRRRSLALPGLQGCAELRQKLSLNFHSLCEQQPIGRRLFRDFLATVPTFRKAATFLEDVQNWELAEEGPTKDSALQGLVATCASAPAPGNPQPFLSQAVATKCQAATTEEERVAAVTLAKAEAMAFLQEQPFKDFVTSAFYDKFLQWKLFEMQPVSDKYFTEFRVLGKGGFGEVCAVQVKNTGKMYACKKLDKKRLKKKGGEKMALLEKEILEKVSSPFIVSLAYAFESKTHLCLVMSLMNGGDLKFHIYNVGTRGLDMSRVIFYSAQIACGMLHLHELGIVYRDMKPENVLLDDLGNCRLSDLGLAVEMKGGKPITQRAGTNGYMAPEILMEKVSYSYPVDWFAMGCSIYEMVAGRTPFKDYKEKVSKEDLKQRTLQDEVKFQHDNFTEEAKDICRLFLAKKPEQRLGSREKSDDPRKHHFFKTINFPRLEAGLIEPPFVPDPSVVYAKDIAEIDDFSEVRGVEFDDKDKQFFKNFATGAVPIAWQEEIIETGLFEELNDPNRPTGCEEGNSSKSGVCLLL
# TRAF2 and NCK-interacting protein kinase (Homo sapiens), sequence (Q9UKE5 whole entry, looked up): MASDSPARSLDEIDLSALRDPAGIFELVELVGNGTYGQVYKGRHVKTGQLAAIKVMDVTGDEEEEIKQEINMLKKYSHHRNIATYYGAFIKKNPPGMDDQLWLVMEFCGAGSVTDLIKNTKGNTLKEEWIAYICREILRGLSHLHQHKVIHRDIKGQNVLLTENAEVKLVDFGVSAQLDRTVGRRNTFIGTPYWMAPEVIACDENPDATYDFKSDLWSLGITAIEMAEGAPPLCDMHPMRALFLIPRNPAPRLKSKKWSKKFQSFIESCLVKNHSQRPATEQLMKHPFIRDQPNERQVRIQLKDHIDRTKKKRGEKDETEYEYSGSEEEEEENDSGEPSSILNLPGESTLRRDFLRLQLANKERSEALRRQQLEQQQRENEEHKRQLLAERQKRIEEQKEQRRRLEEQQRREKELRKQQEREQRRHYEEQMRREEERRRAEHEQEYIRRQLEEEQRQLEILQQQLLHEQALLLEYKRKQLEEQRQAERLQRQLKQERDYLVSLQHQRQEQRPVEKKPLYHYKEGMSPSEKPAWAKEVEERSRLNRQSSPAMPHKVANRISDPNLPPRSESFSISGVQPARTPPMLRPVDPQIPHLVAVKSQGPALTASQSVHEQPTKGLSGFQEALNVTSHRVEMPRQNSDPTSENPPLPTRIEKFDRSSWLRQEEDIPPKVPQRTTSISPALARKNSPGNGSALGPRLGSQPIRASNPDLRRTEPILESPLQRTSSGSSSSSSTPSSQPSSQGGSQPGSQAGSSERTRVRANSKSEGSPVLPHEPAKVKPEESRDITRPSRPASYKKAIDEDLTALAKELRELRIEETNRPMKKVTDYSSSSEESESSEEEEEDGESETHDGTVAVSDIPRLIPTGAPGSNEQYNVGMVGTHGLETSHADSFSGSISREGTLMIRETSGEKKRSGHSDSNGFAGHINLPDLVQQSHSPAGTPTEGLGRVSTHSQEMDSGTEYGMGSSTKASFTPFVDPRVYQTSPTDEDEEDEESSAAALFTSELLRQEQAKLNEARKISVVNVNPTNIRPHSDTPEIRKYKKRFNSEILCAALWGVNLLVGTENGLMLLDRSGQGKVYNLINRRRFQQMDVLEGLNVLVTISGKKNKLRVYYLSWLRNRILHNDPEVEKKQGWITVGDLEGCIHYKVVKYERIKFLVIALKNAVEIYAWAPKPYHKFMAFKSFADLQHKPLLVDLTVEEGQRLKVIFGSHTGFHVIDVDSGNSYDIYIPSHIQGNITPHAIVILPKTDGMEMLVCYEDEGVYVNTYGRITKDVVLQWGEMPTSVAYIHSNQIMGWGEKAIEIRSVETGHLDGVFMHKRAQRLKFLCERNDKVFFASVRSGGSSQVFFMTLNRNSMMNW
# Myosin light chain kinase family member 4 (Homo sapiens), sequence (Q86YV6 whole entry): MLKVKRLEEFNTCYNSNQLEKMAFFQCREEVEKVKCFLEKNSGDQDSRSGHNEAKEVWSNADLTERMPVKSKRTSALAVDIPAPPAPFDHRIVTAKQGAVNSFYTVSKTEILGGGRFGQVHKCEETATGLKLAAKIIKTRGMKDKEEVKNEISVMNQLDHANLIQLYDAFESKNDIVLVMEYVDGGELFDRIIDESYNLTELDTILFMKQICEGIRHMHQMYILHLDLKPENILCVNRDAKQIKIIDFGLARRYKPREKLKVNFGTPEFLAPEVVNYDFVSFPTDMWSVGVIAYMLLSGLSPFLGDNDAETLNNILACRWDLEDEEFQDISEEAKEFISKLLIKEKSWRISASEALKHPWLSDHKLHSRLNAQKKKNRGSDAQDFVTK
# Phosphatidylinositol 4-phosphate 5-kinase type-1 gamma (Homo sapiens), sequence (O60331 whole entry): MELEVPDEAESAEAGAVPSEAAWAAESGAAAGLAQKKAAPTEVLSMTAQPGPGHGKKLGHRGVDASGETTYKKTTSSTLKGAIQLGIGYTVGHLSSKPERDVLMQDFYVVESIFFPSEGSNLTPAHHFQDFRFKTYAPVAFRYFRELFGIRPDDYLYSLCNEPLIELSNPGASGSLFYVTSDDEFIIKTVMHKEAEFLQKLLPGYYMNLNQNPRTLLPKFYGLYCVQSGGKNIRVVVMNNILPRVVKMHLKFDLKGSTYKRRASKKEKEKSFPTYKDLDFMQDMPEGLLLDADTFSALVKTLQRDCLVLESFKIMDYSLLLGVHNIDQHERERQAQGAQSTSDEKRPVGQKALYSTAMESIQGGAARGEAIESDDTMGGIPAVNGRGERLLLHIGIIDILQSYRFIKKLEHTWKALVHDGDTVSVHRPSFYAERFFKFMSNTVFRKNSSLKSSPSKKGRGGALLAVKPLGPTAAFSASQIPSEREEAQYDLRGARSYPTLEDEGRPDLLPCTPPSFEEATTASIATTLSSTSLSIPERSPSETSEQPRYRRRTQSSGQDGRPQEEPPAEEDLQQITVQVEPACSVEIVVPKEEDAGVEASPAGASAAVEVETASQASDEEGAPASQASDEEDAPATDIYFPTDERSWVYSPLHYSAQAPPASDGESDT
# Serine/threonine-protein kinase PAK 1 (Homo sapiens), sequence (Q13153 whole entry): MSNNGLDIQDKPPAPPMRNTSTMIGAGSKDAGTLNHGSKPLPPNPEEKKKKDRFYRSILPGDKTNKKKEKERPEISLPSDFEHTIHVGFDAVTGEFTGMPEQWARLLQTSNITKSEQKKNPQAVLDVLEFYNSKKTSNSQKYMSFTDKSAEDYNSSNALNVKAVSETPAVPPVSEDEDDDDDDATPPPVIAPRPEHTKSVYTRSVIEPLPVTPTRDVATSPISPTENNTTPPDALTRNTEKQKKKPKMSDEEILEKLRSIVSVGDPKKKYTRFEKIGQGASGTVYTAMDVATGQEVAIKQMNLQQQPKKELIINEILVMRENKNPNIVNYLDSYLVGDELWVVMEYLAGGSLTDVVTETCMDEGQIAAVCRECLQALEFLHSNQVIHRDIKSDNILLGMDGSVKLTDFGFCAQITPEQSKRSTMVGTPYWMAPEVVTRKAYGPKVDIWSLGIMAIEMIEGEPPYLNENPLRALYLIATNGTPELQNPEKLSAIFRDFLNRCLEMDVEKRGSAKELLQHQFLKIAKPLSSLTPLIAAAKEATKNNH
smiles,measurement,setting,value
C[C@H](c1ccc(F)cc1)N(Cc1cccc(C(=O)O)c1)C(=O)c1cnc2ccccc2c1 [PF-05105679],residual activity,[1],96%
same,residual activity,[2],92%
same,residual activity,[3],93%
same,residual activity,[4],94%
same,inhibition,[5],-2.7%
same,residual activity,[6],100%
same,residual activity,[7],100%
same,residual activity,[8],100%
same,residual activity,[9],90%
same,residual activity,[10],100%
same,residual activity,[11],80%
same,inhibition,[12],3.68%
same,residual activity,[13],100%
same,residual activity,[14],100%
same,residual activity,[15],93%
same,residual activity,[16],96%
same,residual activity,[17],99%
same,residual activity,[18],93%
same,residual activity,[19],100%
same,residual activity,[20],100%
same,inhibition,[21],7.42%
same,residual activity,[22],82%
same,residual activity,[23],100%
same,residual activity,[24],82%
same,Ki,[25],1020 nM
same,pKi,[25],5.99
same,residual activity,[26],79%
same,inhibition,[27],12.6%
same,residual activity,[28],100%
same,residual activity,[29],100%
same,residual activity,[30],100%
same,residual activity,[31],63%
same,residual activity,[32],100%
same,residual activity,[33],100%
same,residual activity,[34],76%
same,residual activity,[35],100%
same,residual activity,[36],95%
same,residual activity,[37],100%
same,residual activity,[38],86%
same,residual activity,[39],74%
same,residual activity,[40],100%
same,residual activity,[41],100%
same,residual activity,[42],100%
same,residual activity,[43],100%
same,inhibition,[44],23.7%
same,residual activity,[45],91%
